Assay results reported in patent US11136562B2, “Conditionally active heterodimeric polypeptides and methods of use thereof” (The Regents of the University of California, priority 2016, dated 2021).

Assays:
ER CAR+ Jurkat cells = experiment: CD69 upregulation by ER CAR+ Jurkat cells (bCW502 and bCW505) co-cultured with K562 target cells; format: cell-based, human
Method: A Jurkat cell line expressing Green Fluorescent Protein upon NFAT activation was used. The cell line was maintained in RPMI-1640 medium supplemented with 10% FBS and glutamine. K562 target cells (CD19+/−) were cultured in DMEM supplemented with 10% FBS. Jurkat cells infected with lentivirus with the CAR constructs were co-cultured with K562 target cells that expressed the target antigen (CD19) or an irrelevant antigen (mesothelin). 4-Hydroxytamoxifen (Sigma-Aldrich #H7904) was dissolved in DMSO and added to samples to a final concentration of 0-10 μM. The Rapalog A/C Heterodimerizer (Clontech Laboratories #635055) was dissolved in ethanol and added to a final concentration of 500 nM. The cells were cultured for 24 hours, stained for CD69 expression, and analyzed on a flow cytomter.
The data are depicted in FIG. 16A and FIG. 16B. FIG. 16A. CD69 upregulation by Jurkat cells expressing ER CAR+ (bCW502 and bCW505) after 24 hours of co-culturing with K562 target cells expressing CD19 or mesothelin, an irrelevant antigen (“meso”), in the presence or absence of a small-molecule dimerizer (4-hydroxytamoxifen or rapalog AP21967). […] Rapamycin CAR and dead rapamycin CAR (with a mutation in ITAM that abolishes signalling) were tested as positive and negative controls, respectively. FIG. 16B. […]

[1] = test system: primary human CD8+ T cells expressing a CD19 specific ER-beta/CoRNR ON-switch CAR; experiment: CD69 upregulation by primary human CD8+ T cells expressing ER-beta/CoRNR ON-switch CAR co-cultured with K562 target cells; format: cell-based; details: 24 hours co-culture with K562 cells expressing CD19, 4-hydroxytamoxifen 0-10 μM
Text: A human estrogen receptor beta nuclear receptor-peptide system was expressed in primary human T cells and found to capable of modulating ON-switch CAR activity. A CD19 specific ON-switch CAR was constructed to include human estrogen receptor beta ligand binding domain and co-repressor peptide (CoRNR). A schematic representation of the general construct within the T cell membrane, and the associated CD19 antigen expressed on the surface of the target cell, is provided in FIG. 17.
Specifically, CD69 upregulation by primary human CD8+ T cells expressing a CD19 specific ON-switch CAR constructed to include human estrogen receptor beta ligand binding domain (ER-beta) and co-repressor peptide (CoRNR) was measured after 24 hours of co-culturing with K562 target cells expressing CD19 or mesothelin, an irrelevant antigen (“meso”), in the presence or absence of a small-molecule dimerizer (4-hydroxytamoxifen or rapalog “rapa”).

[2] = test system: CD19-expressing K562 target cells; experiment: Target cell killing by primary human CD8+ T cells expressing the CD19 specific ER-beta/CoRNR ON-switch CAR; format: cell-based; details: 22 hours co-culture; percent of CD19-expressing K562 target cells remaining; various drug concentrations
Method: Cell killing by primary human CD8+ T cells expressing the CD19 specific ER-beta/CoRNR ON-switch CAR was also assessed. Specifically, the percent of CD19-expressing K562 target cells remaining after 22 hours of co-culture with primary human CD8+ T cells expressing the CD19 specific ER-beta/CoRNR ON-switch CAR (ER-CAR) in the presence of various concentrations of drug (4-hydroxytamoxifen (4HT) or rapalog) was measured (FIG. 52). Cells expressing a CD19 specific single-chain second generation CAR (“2nd gen CAR”) and cells expressing a CD19 specific rapalog on-switch CAR, with administered rapalog dimerizer, were used as positive controls. Negative controls included cells expressing ER-CAR T cells in absence of 4HT (ethanol vehicle only, “ER-CAR+EtOH”) and cells expressing only part 2 of the ER-CAR on-switch construct, i.e., without part 1, in the presence of 4HT.

[3] = test system: primary CD8+ T cells expressing a split ON-switch CAR (human Vitamin D receptor ligand binding domain / SRC2-3 coactivator peptide); experiment: T cell activation of primary CD8+ T cells expressing a split ON-switch CAR with human Vitamin D receptor LBD and SRC2-3 coactivator peptide; format: cell-based; details: in the presence of the dimerizer

Compound	EC50 (ER CAR+ Jurkat cells; 24 hours co-culture with K562 cells expressing CD19, flow cytometry, read-out: EC50 of CD69 expression induction) [nM]	CD69 expression in ER CAR+ Jurkat cells (ER CAR+ Jurkat cells; 24 hours co-culture, only in the presence of K562 cells expressing CD19, not the irrelevant antigen mesothelin)	T cell activation (CD69 upregulation) of primary human CD8+ T cells [1]	T cell activation (CD69 upregulation) of primary human CD8+ T cells ([1]; listed as 4-hyroxytamoxifen)	target cell killing (cytotoxic activity) [2]	T cell activation [3]
4-Hydroxytamoxifen	~100	strongly induced	increasing numbers of CD69 positive primary human CD8+ T cells	increased T cell activation	inducible target cell killing	
C=C1/C(=C\C=C2/CCC[C@]3(C)[C@@H]([C@H](C)/C=C/[C@@H](O)C4CC4)CC[C@@H]23)C[C@@H](O)C[C@@H]1O [calcipotriol]						increased activation
